Measurements from US11247990B1, “Bicyclic fused pyridine compounds as inhibitors of TAM kinases” (ARRAY BIOPHARMA INC., priority 2017, dated 2022).

Legend:
Conditions in all cases: averaged IC50
[1] = target: His-tagged recombinant human AXL cytoplasmic domain (Homo sapiens (Human), UniProt P30530); test: AXL Enzyme Assay (LanthaScreen Eu Kinase Binding, TR-FRET)
Outline: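 Compound displacement measured by TR-FRET after 60 min at 22 °C, using Eu-based LanthaScreen binding technology. Ratiometric emission converted to percent of control, fitted to a 4-parameter logistic curve, with IC50 at 50 POC.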

[2] = target: His-tagged recombinant human MER cytoplasmic domain (Homo sapiens (Human), UniProt Q12866); test: MER Enzyme Assay (LanthaScreen Eu Kinase Binding, TR-FRET)
Outline: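 Percent of control, derived from ratiometric TR-FRET emission, was fitted to a 4-parameter logistic curve and IC50 taken at 50 POC. Binding was read after 60 min at 22 °C using Eu-based LanthaScreen technology and recombinant His-tagged MER cytoplasmic domain.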

[3] = target: GST-tagged recombinant human TYRO3 kinase domain (Homo sapiens (Human), UniProt Q06418); test: TYRO3 Enzyme Assay (LanthaScreen Eu Kinase Binding, TR-FRET)
Outline: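 LanthaScreen Eu binding (tracer displacement) format read by TR-FRET after 60 min at 22 °C. Emission ratio converted to percent of control; IC50 taken where a 4-parameter logistic fit crosses 50 POC.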

Sequence of His-tagged recombinant human AXL cytoplasmic domain (P30530 473-894): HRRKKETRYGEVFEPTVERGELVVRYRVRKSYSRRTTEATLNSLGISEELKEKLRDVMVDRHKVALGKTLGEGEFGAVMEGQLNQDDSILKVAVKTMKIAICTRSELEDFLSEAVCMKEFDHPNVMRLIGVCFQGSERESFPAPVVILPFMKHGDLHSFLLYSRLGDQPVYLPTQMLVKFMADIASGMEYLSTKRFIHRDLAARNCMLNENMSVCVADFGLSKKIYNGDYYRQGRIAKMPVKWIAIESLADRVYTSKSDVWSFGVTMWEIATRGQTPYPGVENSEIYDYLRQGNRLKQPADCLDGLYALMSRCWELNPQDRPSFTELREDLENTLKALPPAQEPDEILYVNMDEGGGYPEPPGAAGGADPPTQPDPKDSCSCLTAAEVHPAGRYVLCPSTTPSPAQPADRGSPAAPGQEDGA
Sequence of His-tagged recombinant human MER cytoplasmic domain (Q12866 527-999): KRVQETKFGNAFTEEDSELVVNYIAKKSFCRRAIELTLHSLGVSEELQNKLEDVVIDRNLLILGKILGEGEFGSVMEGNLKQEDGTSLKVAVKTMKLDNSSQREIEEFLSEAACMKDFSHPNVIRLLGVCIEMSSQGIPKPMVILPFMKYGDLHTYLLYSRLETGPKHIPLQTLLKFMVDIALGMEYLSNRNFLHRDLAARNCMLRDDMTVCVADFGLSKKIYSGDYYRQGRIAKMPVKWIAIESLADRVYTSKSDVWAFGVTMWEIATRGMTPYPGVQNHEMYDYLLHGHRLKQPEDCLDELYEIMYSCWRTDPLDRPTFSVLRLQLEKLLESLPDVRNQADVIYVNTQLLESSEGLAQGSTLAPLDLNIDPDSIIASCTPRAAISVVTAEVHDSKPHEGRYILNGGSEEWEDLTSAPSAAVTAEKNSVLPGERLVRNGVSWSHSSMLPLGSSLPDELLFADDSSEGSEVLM
Sequence of GST-tagged recombinant human TYRO3 kinase domain (Q06418 518-790): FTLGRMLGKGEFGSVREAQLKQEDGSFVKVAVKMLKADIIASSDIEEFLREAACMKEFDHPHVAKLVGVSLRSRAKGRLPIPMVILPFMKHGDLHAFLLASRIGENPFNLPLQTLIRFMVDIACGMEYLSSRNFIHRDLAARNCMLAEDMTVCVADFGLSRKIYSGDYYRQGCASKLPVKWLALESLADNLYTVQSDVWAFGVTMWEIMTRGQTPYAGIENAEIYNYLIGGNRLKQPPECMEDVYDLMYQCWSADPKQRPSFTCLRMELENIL

IC50 [1] | IC50 [2] | IC50 [3] | Compound
< 10 nM | < 10 nM | 10 to 100 nM | CNc1cc2c(cn1)c(-c1cnn(C)c1)nn2[C@H]1CC[C@@H](Oc2ccccc2)[C@H](O)C1 [Example 471B, (1R,2R,5S)-5-(3-(1-methyl-1H-pyrazol-4-yl)-6-(methylamino)-1H-pyrazolo[4,3-c]pyridin-1-yl)-2-phenoxycyclohexan-1-ol]
1000 to 10000 nM | 1000 to 10000 nM | 1000 to 10000 nM | Cn1cc(-c2nn([C@H]3CC[C@@H](Oc4ccc(=O)n(C)n4)CC3)c3cc(N)ncc23)cn1 [Example 75, 6-(((1s,4s)-4-(6-amino-3-(1-methyl-1H-pyrazol-4-yl)-1H-pyrazolo[4,3-c]pyridin-1-yl)cyclohexyl)oxy)-2-methylpyridazin-3(2H)-one]
< 10 nM | < 10 nM | < 10 nM | CCNc1cc2c(cn1)c(N1CCC(OC)CC1)nn2[C@H]1CC[C@@H](Oc2nccc(C(F)(F)F)c2F)CC1 [Example 333, N-ethyl-1-((1s,4s)-4((3-fluoro-4-(trifluoromethyl)pyridin-2-yl)oxy)cyclohexyl)-3-(4-methoxypiperidin-1-yl)-1H-pyrazolo[4,3-c]pyridin-6-amine]
< 10 nM | < 10 nM | 10 to 100 nM | CNc1cc2c(cn1)c(-c1cnn([C@H]3CCNC[C@@H]3F)c1)nn2[C@H]1CC[C@@H](Oc2ccccc2F)CC1 [Example 399, 1-((1s,4R)-4-(2-fluorophenoxy)cyclohexyl)-3-(1-((3S,4S)-3-fluoropiperidin-4-yl)-1H-pyrazol-4-yl)-N-methyl-1H-pyrazolo[4,3-c]pyridin-6-amine]
< 10 nM | < 10 nM | 10 to 100 nM | CCNc1cc2c(cn1)c(-c1cnn(C)c1)nn2[C@H]1CC[C@@H](Oc2nccc(C(F)(F)F)c2F)CC1 [Example 198, N-ethyl-1-((1s,4s)-4-((3-fluoro-4-(trifluoromethyl)pyridin-2-yl)oxy)cyclohexyl)-3-(1-methyl-1H-pyrazol-4-yl)-1H-pyrazolo[4,3-c]pyridin-6-amine]
< 10 nM | < 10 nM | < 10 nM | CCNc1cc2c(cn1)c(-c1cnn(C(CO)CO)c1)nn2[C@H]1CC[C@@H](Oc2cccnc2C(F)(F)F)CC1 [Example 207, 2-(4-(6-(ethylamino)-1-((1s,4s)-4-((2-(trifluoromethyl)pyridin-3-yl)oxy)cyclohexyl)-1H-pyrazolo[4,3-c]pyridin-3-yl)-1H-pyrazol-1-yl)propane-1,3-diol]
< 10 nM | < 10 nM | 10 to 100 nM | CCNc1cc2c(cn1)c(C1CCN(C)C1)nn2[C@H]1CC[C@@H](Oc2nccc(C(F)(F)F)c2F)CC1 (stereo partly drawn) [Example 325, N-ethyl-1-((1s,4s)-4-((3-fluoro-4-(trifluoromethyl)pyridin-2-yl)oxy)cyclohexyl)-3-(1-methylpyrrolidin-3-yl)-1H-pyrazolo[4,3-c]pyridin-6-amine]
< 10 nM | < 10 nM | 100 to 1000 nM | CCNc1cc2c(cn1)c(-c1cnn(C)c1)nn2[C@H]1CC[C@@H](Oc2nccc(N(C)C)c2F)CC1 [Example 349, 1-((1s,4s)-4-((4-(dimethylamino)-3-fluoropyridin-2-yl)oxy)cyclohexyl)-N-ethyl-3-(1-methyl-1H-pyrazol-4-yl)-1H-pyrazolo[4,3-c]pyridin-6-amine]
< 10 nM | < 10 nM | 100 to 1000 nM | CNc1cc2c(cn1)c(-c1ccc(C3(N4CCN(C)CC4)CC3)cc1)nn2[C@H]1CC[C@@H](Oc2ccc(=O)n(C)n2)CC1 [Example 53, 2-methyl-6-(((1s,4s)-4-(6-(methylamino)-3-(4-(1-(4-methylpiperazin-1-yl)cyclopropyl)phenyl)-1H-pyrazolo[4,3-c]pyridin-1-yl)cyclohexyl)oxy)pyridazin-3(2H)-one]
< 10 nM | < 10 nM | < 10 nM | CCNc1cc2c(cn1)c(-c1cnn(CCN3CCN(C)CC3)c1)nn2[C@H]1CC[C@@H](Oc2nccc(C(F)(F)F)c2F)CC1 [Example 496]
< 10 nM | < 10 nM | 10 to 100 nM | CNc1cc2c(cn1)c(-c1cnn(CC(C)(C)O)c1)nn2[C@H]1CC[C@@H](Oc2ccccc2F)CC1 [Example 396, 1-(4-(1-((1s,4s)-4-(2-fluorophenoxy)cyclohexyl)-6-(methylamino)-1H-pyrazolo[4,3-c]pyridin-3-yl)-1H-pyrazol-1-yl)-2-methylpropan-2-ol]
< 10 nM | < 10 nM | < 10 nM | CNc1cc2c(cn1)c(-c1ccc3c(c1)CNC3=O)nn2[C@H]1CC[C@@H](Oc2cccnc2C(F)(F)F)CC1 [Example 218, 5-(6-(methylamino)-1-((1s,4s)-4-((2-(trifluoromethyl)pyridin-3-yl)oxy)cyclohexyl)-1H-pyrazolo[4,3-c]pyridin-3-yl)isoindolin-1-one]
< 10 nM | < 10 nM | < 10 nM | CCNc1cc2c(cn1)c(-c1cnn(C)c1)nn2[C@H]1CC[C@@H](Oc2cccnc2C#N)CC1 [Example 188, 3-(((1s,4s)-4-(6-(ethylamino)-3-(1-methyl-1H-pyrazol-4-yl)-1H-pyrazolo[4,3-c]pyridin-1-yl)cyclohexyl)oxy)picolinonitrile]

Continued, compound first:

Compound | IC50 [1] | IC50 [2] | IC50 [3]
CCNc1cc2c(cn1)c(-c1ccc3c(c1)CNS3(=O)=O)nn2[C@H]1CC[C@@H](Oc2cn(C)nc2C(F)(F)F)CC1 [Example 221, 5-(6-(ethylamino)-1-((1s,4s)-4-((1-methyl-3-(trifluoromethyl)-1H-pyrazol-4-yl)oxy)cyclohexyl)-1H-pyrazolo[4,3-c]pyridin-3-yl)-2,3-dihydrobenzo[d]isothiazole 1,1-dioxide] | < 10 nM | < 10 nM | < 10 nM
CNc1cc2c(cn1)c(-c1cnn(C)c1)nn2[C@H]1CC[C@@H](Oc2cccnc2C(F)(F)F)CC1 [Example 137, N-methyl-3-(1-methyl-1H-pyrazol-4-yl)-1-((1s,4s)-4-((2-(trifluoromethyl)pyridin-3-yl)oxy)cyclohexyl)-1H-pyrazolo[4,3-c]pyridin-6-amine] | < 10 nM | < 10 nM | < 10 nM
CCNc1cc2c(cn1)c(N1CC[C@@H](NC)C1)nn2[C@H]1CC[C@@H](Oc2nccc(C(F)(F)F)c2F)CC1 [Example 339, N-ethyl-1-((1s,4S)-4-((3-fluoro-4-(trifluoromethyl)pyridin-2-yl)oxy)cyclohexyl)-3-((R)-3-(methylamino)pyrrolidin-1-yl)-1H-pyrazolo[4,3-c]pyridin-6-amine] | < 10 nM | < 10 nM | < 10 nM
CNc1cc2c(cn1)c(-c1cnn(C(CO)CO)c1)nn2[C@H]1CC[C@@H](Oc2cccc(F)c2)CC1 [Example 409, 2-(4-(1-((1s,4s)-4-(3-fluorophenoxy)cyclohexyl)-6-(methylamino)-1H-pyrazolo[4,3-c]pyridin-3-yl)-1H-pyrazol-1-yl)propane-1,3-diol] | < 10 nM | < 10 nM | 10 to 100 nM
CNc1cc2c(cn1)c(-c1cnn(C(CO)CO)c1)nn2[C@H]1CC[C@@H](Oc2ccccc2F)CC1 [Example 408, 2-(4-(1-((1s,4s)-4-(2-fluorophenoxy)cyclohexyl)-6-(methylamino)-1H-pyrazolo[4,3-c]pyridin-3-yl)-1H-pyrazol-1-yl)propane-1,3-diol] | < 10 nM | < 10 nM | 10 to 100 nM
CNc1cc2c(cn1)c(-c1cnn(C)c1)nn2[C@H]1CC[C@@H](Oc2cnn(C)c2C(F)(F)F)CC1 [Example 262, N-methyl-3-(1-methyl-1H-pyrazol-4-yl)-1-((1s,4s)-4-((1-methyl-5-(trifluoromethyl)-1H-pyrazol-4-yl)oxy)cyclohexyl)-1H-pyrazolo[4,3-c]pyridin-6-amine] | < 10 nM | < 10 nM | 10 to 100 nM
CCNc1cc2c(cn1)c(-c1cnn(CC(=O)NC)c1)nn2[C@H]1CC[C@@H](Oc2nccc(C(F)(F)F)c2F)CC1 [Example 258, 2-(4-(6-(ethylamino)-1-((1s,4s)-4-((3-fluoro-4-(trifluoromethyl)pyridin-2-yl)oxy)cyclohexyl)-1H-pyrazolo[4,3-c]pyridin-3-yl)-1H-pyrazol-1-yl)-N-methylacetamide] | < 10 nM | < 10 nM | < 10 nM
CNc1cc2c(cn1)c(-c1cnn(C)c1)nn2[C@H]1CC[C@@H](Oc2cccc3ncccc23)CC1 [Example 377, N-methyl-3-(1-methyl-1H-pyrazol-4-yl)-1-((1s,4s)-4-(quinolin-5-yloxy)cyclohexyl)-1H-pyrazolo[4,3-c]pyridin-6-amine] | < 10 nM | < 10 nM | < 10 nM
CCNc1cc2c(cn1)c(C1CCN(C)CC1)nn2[C@H]1CC[C@@H](Oc2nccc(C(F)(F)F)c2F)CC1 [Example 316, N-ethyl-1-((1s,4s)-4-((3-fluoro-4-(trifluoromethyl)pyridin-2-yl)oxy)cyclohexyl)-3-(1-methylpiperidin-4-yl)-1H-pyrazolo[4,3-c]pyridin-6-amine] | < 10 nM | < 10 nM | 10 to 100 nM
CCNc1cc2c(cn1)c(-c1cnn(C[C@H](O)C(C)(C)O)c1)nn2[C@H]1CC[C@@H](Oc2ccc(F)cc2F)CC1 [Example 448, (S)-1-(4-(1-((1s,4S)-4-(2,4-difIuorophenoxy)cyclohexyl)-6-(ethylamino)-1H pyrazolo[4,3-c]pyridin-3-yl)-1H-pyrazol-1-yl)-3-methylbutane-2,3-diol] | < 10 nM | < 10 nM | 10 to 100 nM
